The text below walks through data of patent US7402606B2, “Derivatives of 1-(oxoaminoacetyl) pentylcarbamate as cathepsin K inhibitors for the treatment of bone loss” (SmithKline Beecham Corporation, priority 2002, dated 2008).

Type in all cases: biochemical
Test [1] concerns the target T1, rat cathepsin K (Rattus norvegicus, UniProt O35186).
T1 construct: The proform of cathepsin K was converted to mature cathepsin K by brief exposure to pH 4; made in house; host or cells: baculovirus; Trichoplusia ni High Five cells (virus raised in Sf-9)
T1 sequence (O35186 115-329): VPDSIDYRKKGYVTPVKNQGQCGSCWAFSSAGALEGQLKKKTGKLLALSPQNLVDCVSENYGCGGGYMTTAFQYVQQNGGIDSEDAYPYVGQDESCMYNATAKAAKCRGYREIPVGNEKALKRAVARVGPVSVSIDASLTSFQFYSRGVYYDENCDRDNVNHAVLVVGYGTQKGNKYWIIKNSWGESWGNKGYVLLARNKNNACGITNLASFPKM
Put plainly: Cathepsin K inhibition assay, rat recombinant enzyme, fluorogenic substrate Cbz-Phe-Arg-AMC. To be noted: Table 2, rat cathepsin K; read-out: r Cat K IC50. Here is the method: (§1) All assays for cathepsin K were carried out with human and rat recombinant enzyme. Assays for cathepsins S ? V were also carried out with human recombinant enzyme. Assays for human cathepsins B, H, and L were carried out with enzyme, purchased from Athens Research and Technology, Inc., prepared from human liver tissue. Standard assay conditions for the determination of kinetic constants used a fluorogenic peptide substrate, typically (5S,8S)-13-amino-5-benzyl-13-imino-3-methylene-N-(4-methyl-2-oxo-2H-chromen-7-yl)-6-oxo-1-phenyl-2-oxa-4,7,12triazatridecane-8-carboxamide (Cbz-Phe-Arg-AMC), and were determined in 100 mM sodium acetate at pH 5.5 containing 10 mM dithiothreitol and 120 mM sodium chloride. […]
(§2) All assays contained 10% dimethyl sulfoxide. […] Product fluorescence (excitation at 360 nm; emission at 440 nm, (except cathepsin H which used excitation at 340 nm; emission at 420 nm)) was monitored with a PerSeptive Biosystems Cytofluor II fluorescence plate reader. […]
Protein Purification: Media (human and rat) were filtered through a Whatman 3 filter, and then loaded onto a 25 mL. […] The column was washed until the absorbance reached the baseline value, and then the protein was eluted with a linear gradient from 0-2 M sodium chloride in the equilibration buffer. Column fractions were analyzed by SDS-PAGE, N-terminal sequencing, and mass spectrometry. […]

Test [2] addresses human cathepsin V (Homo sapiens, UniProt O60911). Put plainly: Cathepsin V inhibition assay, human recombinant enzyme, Cbz-Phe-Arg-AMC. The conditions noted are these: Table 2, human cathepsin V; read-out: h Cat V IC50. Here is the method: as §1, §2
(§3) Potential inhibitors were evaluated using the progress curve method. […] For those compounds whose progress curves were linear, the enzymatic activity (RATE) was plotted against the concentration of test compound, including inhibitor concentration of zero ([I]=0), and the IC50 determined from a fit of equation 1 to the data, RATE=Vmax/(1+([I]/IC50)) (1) where Vmax is the best fit estimate of the maximal enzymatic activity. […]

For test [3], the target named is human cathepsin L (Homo sapiens, UniProt P07711). The experiment in a line: Cathepsin L inhibition assay, enzyme from human liver tissue, Cbz-Phe-Arg-AMC. The conditions noted are these: Table 2, human cathepsin L; read-out: h Cat L IC50. Here is the method: as §1, §2, §3
Sequence of human cathepsin L (P07711 114-333): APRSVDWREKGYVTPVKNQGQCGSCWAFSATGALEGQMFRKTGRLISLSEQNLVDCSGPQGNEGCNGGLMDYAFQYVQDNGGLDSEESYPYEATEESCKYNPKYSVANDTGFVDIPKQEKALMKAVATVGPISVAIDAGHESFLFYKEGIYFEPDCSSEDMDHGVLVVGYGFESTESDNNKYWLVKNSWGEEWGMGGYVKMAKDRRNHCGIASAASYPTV
In test [4] the target is human cathepsin B (Homo sapiens, UniProt P07858). The experiment in a line: Cathepsin B inhibition assay, enzyme from human liver tissue, Cbz-Phe-Arg-AMC. To be noted: Table 2, human cathepsin B; read-out: h Cat B IC50. Here is the method:
as §1, §2, §3

Test [5] has as its target human cathepsin H (Homo sapiens, UniProt P09668). The experiment in a line: Cathepsin H inhibition assay, enzyme from human liver tissue, L-Arg-β-naphthalamide. The conditions noted are these: Table 2, human cathepsin H; read-out: h Cat H IC50. Here is the method:
as §1, §2, §3

Sequence of human cathepsin V (O60911 114-334): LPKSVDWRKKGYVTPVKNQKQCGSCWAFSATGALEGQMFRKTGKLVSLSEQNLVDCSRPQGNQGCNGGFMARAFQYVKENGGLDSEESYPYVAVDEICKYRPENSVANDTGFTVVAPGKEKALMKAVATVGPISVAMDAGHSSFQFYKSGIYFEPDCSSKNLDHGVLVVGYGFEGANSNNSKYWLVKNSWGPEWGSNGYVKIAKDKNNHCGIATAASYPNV
Sequence of human cathepsin H (P09668 116-335 limits assumed, other chains not shown): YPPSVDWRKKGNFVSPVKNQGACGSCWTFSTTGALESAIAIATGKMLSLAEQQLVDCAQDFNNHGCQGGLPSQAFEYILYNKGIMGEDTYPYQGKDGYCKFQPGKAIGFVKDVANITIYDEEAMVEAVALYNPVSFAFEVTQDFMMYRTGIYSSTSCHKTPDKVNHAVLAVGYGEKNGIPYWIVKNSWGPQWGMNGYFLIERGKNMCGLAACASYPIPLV

`CCCC[C@H](NC(=O)O[C@@H]1CN(C(=O)Nc2ccc(C(F)(F)F)cc2)CC1(C)C)C(=O)C(=O)Nc1ccn[nH]1` [Example 71, (3S)-4,4-dimethyl-1-{[4-(trifluoromethyl)anilino]carbonyl}pyrrolidinyl (1S)-1-[oxo(1H-pyrazol-5-ylamino)acetyl]pentylcarbamate]: the IC50 – broadly, the concentration at which inhibition is half-maximal – in test [1] was in the range of 10 to 100 nM; in test [2], 10 to 100 nM; in test [3] it was 100 to 1000 nM; in test [4] it was 100 to 1000 nM; in test [5], 100 to 1000 nM.

`CCCC[C@H](NC(=O)O[C@@H]1CN(c2nnc(C(F)(F)F)s2)CC1(C)C)C(=O)C(=O)Nc1ccn[nH]1` [Example 82, (3S)-4,4-Dimethyl-1-[5-(trifluoromethyl)-1,3,4-thiadiazol-2-yl]pyrrolidinyl-(1S)-1-[oxo(1H-pyrazol-5-ylamino)acetyl]pentylcarbamate]: the IC50 was in the range of 10 to 100 nM in test [1]; 10 to 100 nM in test [2]; 100 to 1000 nM in test [3]; 100 to 1000 nM in test [4]; 100 to 1000 nM in test [5].
